pIC50: −log10 of the molar value. Read-outs that look alike come from different tables or passages of the source.
Target: T1, ZAP-70 (Homo sapiens, UniProt P43403)
T1 sequence (P43403 1-619): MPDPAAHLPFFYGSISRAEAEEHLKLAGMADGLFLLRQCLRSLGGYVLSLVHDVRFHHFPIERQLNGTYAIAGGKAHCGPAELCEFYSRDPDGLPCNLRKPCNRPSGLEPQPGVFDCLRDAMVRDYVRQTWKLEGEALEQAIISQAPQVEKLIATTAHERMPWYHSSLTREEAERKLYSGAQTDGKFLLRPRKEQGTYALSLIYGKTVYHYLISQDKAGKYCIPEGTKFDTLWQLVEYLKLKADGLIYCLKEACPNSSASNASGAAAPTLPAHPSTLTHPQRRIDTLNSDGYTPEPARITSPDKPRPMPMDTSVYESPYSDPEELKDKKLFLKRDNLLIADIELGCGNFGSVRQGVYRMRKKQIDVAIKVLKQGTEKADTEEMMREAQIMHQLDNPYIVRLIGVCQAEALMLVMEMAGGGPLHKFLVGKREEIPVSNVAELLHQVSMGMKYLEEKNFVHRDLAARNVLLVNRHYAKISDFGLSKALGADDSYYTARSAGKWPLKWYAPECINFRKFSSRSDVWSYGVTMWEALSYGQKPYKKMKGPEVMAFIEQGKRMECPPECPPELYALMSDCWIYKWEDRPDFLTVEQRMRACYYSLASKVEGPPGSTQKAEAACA
Experiment: DELFIA assay (ZAP-70 kinase, phosphorylation of biotinylated poly(glu,tyr))
Type: biochemical
Conditions: ZAP-70 DELFIA, read-out: Activity (IC50 in vitro)
Method in brief: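 3.1 nM ZAP-70 pre-incubated 10 min at room temperature with compound ([…]) and 62.5 nM biotinylated poly(glu,tyr) in 62.5 mM Mops pH 7.0, 12.5 mM MgCl2, 12.5% glycerol, 6.25% DMSO (pre-incubation concentrations); ATP added from 5 mM stock, 30 min reaction, EDTA stop. Phosphorylation read by DELFIA europium anti-phosphotyrosine fluorescence (340/615).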

SMILES	pIC50 (class symbols)	pIC50 (numeric value)
O=C(c1cc(NCc2ccc(C(F)(F)F)cc2)nc2ccc(-c3cc(F)cc(F)c3)cc12)N1CCC[C@H]1CN1CCCC1 [Compound 108]	5.00 to 6.00	–
CC(CNc1cc(C(=O)N2CCC[C@H]2CN2CCCC2)c2cc(-c3ccc4c(c3)OCO4)ccc2n1)c1ccccc1 (stereo partly drawn) [Compound 54]	> 6.00	–
C[C@H]1CCN(C(=O)c2cc(NCc3ccc(C(F)(F)F)cc3)nc3ccc(-c4ccc5c(c4)OCO5)cc23)[C@@H]1CN1CCCC1 [Compound 147]	5.00 to 6.00	–
O=C(c1cc(NCc2ccccc2)nc2ccc(-c3ccc4c(c3)OCO4)cc12)N1CCC[C@H]1CO [Compound 80]	< 5.00	–
O=C(c1cc(Cc2ccc(N3CCC4(CCNCC4)CC3)cc2)nc2ccc(-c3ccc4c(c3)OCO4)cc12)N1CCCC1CN1CCCC1 (stereo not drawn) [Compound 447]	> 6.00	–
C[C@@H](O)CNc1cc(C(=O)N2CCC[C@H]2CN2CCCC2)c2cc(-c3ccc4c(c3)OCO4)ccc2n1 [Compound 47]	5.00 to 6.00	–
N#Cc1ccc(-c2ccc3nc(NCc4cccc(Cl)c4)cc(C(=O)N4CCC[C@H]4CN4CCCC4)c3c2)cc1 [Compound 167]	< 5.00	–
N#Cc1ccc(-c2ccc3nc(CCc4ccc(F)cc4)cc(C(=O)N4CCC[C@H]4CN4CCCC4)c3c2)cc1 [Compound 388]	5.00 to 6.00	–
O=C(c1cc(N2CCC[C@H]2CN2CCCC2)nc2ccc(-c3ccc4c(c3)OCO4)cc12)N1CCC[C@H]1CN1CCCC1 [Compound 89]	5.00 to 6.00	–
N#Cc1ccc(-c2ccc3nc(NCCc4ccc(Cl)c(Cl)c4)cc(C(=O)N4CCC[C@H]4CN4CCCC4)c3c2)cc1 [Compound 220]	< 5.00	–
O=C(c1cc(NCc2ccc(C(F)(F)F)cc2)nc2ccc(-c3ccc4ncsc4c3)cc12)N1CCC[C@H]1CN1CCCC1 [Compound 352]	> 6.00	–
O=C(c1cc(N2CCOCC2)nc2ccc(-c3ccc4c(c3)OCO4)cc12)N1CCC[C@H]1CN1CCCC1 [Compound 62]	5.00 to 6.00	–
O=C(c1cc(Nc2ccc(N3CCNCC3)cc2)nc2ccc(-c3ccc4c(c3)OCO4)cc12)N1CCCC1CN1CCCC1 (stereo not drawn) [Compound 428]	> 6.00	–
O=C(c1cc(NCc2ccc(C(F)(F)F)cc2)nc2ccc(-c3cccc([C@H]4CCNC[C@@H]4O)c3)cc12)N1CCC[C@H]1CN1CCCC1 [Compound 425]	< 5.00	–
N#Cc1ccc(-c2ccc3nc(NCc4ccccc4OC(F)F)cc(C(=O)N4CCC[C@H]4CN4CCCC4)c3c2)cc1 [Compound 232]	< 5.00	–
CC[C@@H](Nc1cc(C(=O)N2CCC[C@H]2CN2CCCC2)c2cc(-c3ccc(C#N)cc3)ccc2n1)c1ccccc1 [Compound 184]	< 5.00	–
CN(Cc1ccc(Cl)c(Cl)c1)c1cc(C(=O)N2CCC[C@H]2CN2CCCC2)c2cc(-c3ccc4c(c3)OCO4)ccc2n1 [Compound 77]	> 6.00	–
O=C(c1cc(NCc2ccc(C(F)(F)F)cc2)nc2ccc(-c3cccc(Cl)c3Cl)cc12)N1CCC[C@H]1CN1CCCC1 [Compound 346]	< 5.00	–
O=C(c1cc(NCc2ccc(C(F)(F)F)cc2)nc2ccc(-c3ccc(Cl)cc3)cc12)N1CCC[C@H]1CN1CCCC1 [Compound 305]	> 6.00	–

SMILES	pIC50 (class symbols)	pIC50 (numeric value)
Cc1ccc(CNc2cc(C(=O)N3CCC[C@H]3CN3CCCC3)c3cc(-c4ccc(C#N)cc4)ccc3n2)c(C)c1 [Compound 224]	< 5.00	–
COC[C@@H]1CCCN1c1cc(C(=O)N2CCC[C@H]2CN2CCCC2)c2cc(-c3ccc4c(c3)OCO4)ccc2n1 [Compound 329]	< 5.00	–
O=C(c1cc(NC2CCC2)nc2ccc(-c3ccc4c(c3)OCO4)cc12)N1CCC[C@H]1CN1CCCC1 [Compound 39]	5.00 to 6.00	–
O=C(c1cc(NCc2cccc(F)c2)nc2ccc(-c3ccc4c(c3)OCO4)cc12)N1CCC[C@H]1CN1CCCC1 [Compound 31]	> 6.00	–
Cc1ccc(-c2ccc3nc(NCc4ccc(C(F)(F)F)cc4)cc(C(=O)N4CCC[C@H]4CN4CCCC4)c3c2)s1 [Compound 301]	–	5.75
COc1cccc(CNc2cc(C(=O)N3CCC[C@H]3CN3CCCC3)c3cc(-c4ccc(C#N)cc4)ccc3n2)c1 [Compound 160]	< 5.00	–
N#Cc1ccc(-c2ccc3nc(/C=C/c4ccc(Cl)cc4)cc(C(=O)N4CCC[C@H]4CN4CCCC4)c3c2)cc1 [Compound 387]	5.00 to 6.00	–
FC(F)(F)c1ccc(CNc2cc(CN3CCC[C@H]3CN3CCCC3)c3cc(-c4ccc5c(c4)OCO5)ccc3n2)cc1 [Compound 94]	5.00 to 6.00	–
N#Cc1ccc(-c2ccc3nc(N4CCC[C@@H]4c4ccccc4Cl)cc(C(=O)N4CCC[C@H]4CN4CCCC4)c3c2)cc1 [Compound 258]	< 5.00	–
CN(CCc1ccccc1)c1cc(C(=O)N2CCC[C@H]2CN2CCCC2)cc(N2CCOCC2)n1 [Compound 370]	< 5.00	–
O=C(c1cc(NCc2ccc(C(F)(F)F)cc2)nc2ccc(CCc3cccc(C(F)(F)F)c3)cc12)N1CCC[C@H]1CN1CCCC1 [Compound 289]	5.00 to 6.00	–
N#Cc1ccc(-c2ccc3nc(NCc4cc(F)ccc4C(F)(F)F)cc(C(=O)N4CCC[C@H]4CN4CCCC4)c3c2)cc1 [Compound 241]	< 5.00	–
CN(Cc1ccccc1)c1cc(C(=O)N2CCC[C@H]2CN2CCCC2)cc(N(C)c2ccccc2)n1 [Compound 363]	5.00 to 6.00	–
O=C(Nc1cc(C(=O)N2CCC[C@H]2CN2CCCC2)c2cc(-c3ccc4c(c3)OCO4)ccc2n1)c1ccc(Cl)cc1 [Compound 386]	5.00 to 6.00	–
Cc1ccc(CNc2cc(C(=O)N3CCC[C@H]3CN3CCCC3)c3cc(-c4ccc(C#N)cc4)ccc3n2)cc1F [Compound 227]	< 5.00	–
CN(Cc1ccccc1)c1cc(C(=O)N2CCC[C@H]2CN2CCCC2)c2cc(-c3ccc(C#N)cc3)ccc2n1 [Compound 150]	< 5.00	–
CN(CCc1ccccc1)c1cc(C(=O)N2CCC[C@H]2CN2CCCC2)cc(-c2ccc3c(c2)OCO3)n1 [Compound 368]	< 5.00	–
Fc1ccc(/C=C/c2cc(Nc3ccc(N4CCNCC4)cc3)c3cc(-c4ccc5c(c4)OCO5)ccc3n2)cc1 [Compound 413]	5.00 to 6.00	–
O=C(c1cc(NCc2ccc(C(F)(F)F)cc2)nc2ccc(/C=C/c3ccc(Cl)cc3)cc12)N1CCC[C@H]1CN1CCCC1 [Compound 286]	> 6.00	–

SMILES	pIC50 (class symbols)	pIC50 (numeric value)
N=C(NC1CCC1)[C@@H]1CCCN1C(=O)c1cc(NCc2ccc(C(F)(F)F)cc2)nc2ccc(-c3ccc4c(c3)OCO4)cc12 [Compound 378]	< 5.00	–
CN(C)C(=O)c1ccc(-c2ccc3nc(NCc4ccc(C(F)(F)F)cc4)cc(C(=O)N4CCC[C@H]4CN4CCCC4)c3c2)cc1 [Compound 420]	< 5.00	–
O=C(c1cc(NCc2ccc(C(F)(F)F)cc2)nc2ccc(-c3ccc4c(c3)OCCO4)cc12)N1CCC[C@H]1CN1CCCC1 [Compound 126]	> 6.00	–
O=C(c1cc(NCc2ccc(C(F)(F)F)cc2)nc2ccc(I)cc12)N1CCC[C@H]1CN1CCCC1 [Compound 356]	< 5.00	–
N#Cc1ccc(-c2ccc3nc(NCc4ccc(-c5ccccc5)cc4)cc(C(=O)N4CCC[C@H]4CN4CCCC4)c3c2)cc1 [Compound 252]	< 5.00	–
CN(Cc1ccccc1)c1cc(C(=O)N2CCC[C@H]2CN2CCCC2)cc(/C=C/c2ccccc2)n1 [Compound 279]	< 5.00	–
O=C(c1cc(NCc2ccc(C(F)(F)F)cc2)nc2ccc(-c3ccc(F)cc3F)cc12)N1CCC[C@H]1CN1CCCC1 [Compound 307]	5.00 to 6.00	–
N#Cc1ccc(-c2ccc3nc(NCc4cccc5ccccc45)cc(C(=O)N4CCC[C@H]4CN4CCCC4)c3c2)cc1 [Compound 216]	< 5.00	–
Nc1ccc(-c2ccc3nc(NCc4ccc(C(F)(F)F)cc4)cc(C(=O)N4CCC[C@H]4CN4CCCC4)c3c2)cc1 [Compound 424]	< 5.00	–
CC(Nc1cc(C(=O)N2CCC[C@H]2CN2CCCC2)c2cc(-c3ccc(C#N)cc3)ccc2n1)c1ccc2ccccc2c1 (stereo partly drawn) [Compound 208]	< 5.00	–
N#Cc1ccc(-c2ccc3nc(NCc4ccccc4OC(F)(F)F)cc(C(=O)N4CCC[C@H]4CN4CCCC4)c3c2)cc1 [Compound 236]	< 5.00	–
N#Cc1ccc(-c2ccc3nc(NCc4ccc(F)c(Cl)c4)cc(C(=O)N4CCC[C@H]4CN4CCCC4)c3c2)cc1 [Compound 179]	< 5.00	–
O=C(c1cc(/C=C/c2ccccc2)nc(/C=C/c2ccccc2)c1)N1CCC[C@H]1CN1CCCC1 [Compound 116]	5.00 to 6.00	–
O=C(c1cc(NCc2ccc(C(F)(F)F)cc2)nc2ccc(-c3ccc(C4CCNC[C@H]4O)cc3)cc12)N1CCC[C@H]1CN1CCCC1 (stereo partly drawn) [Compound 426]	< 5.00	–
O=C(c1cc(N2CCC[C@H]2CO)nc2ccc(-c3ccc4c(c3)OCO4)cc12)N1CCC[C@H]1CN1CCCC1 [Compound 327]	< 5.00	–
O=C(c1cc(NCc2ccc(C(F)(F)F)cc2)nc2ccc(-c3ccc(F)cc3)cc12)N1CCC[C@H]1CN1CCCC1 [Compound 302]	> 6.00	–
O=C(c1cc(NCc2ccc(C(F)(F)F)cc2)ncc1Cl)N1CCC[C@H]1CN1CCCC1 [Compound 114]	< 5.00	–
O=C(c1cc(Cc2ccc(N3CCN(c4ccncc4)CC3)cc2)nc2ccc(-c3ccc4c(c3)OCO4)cc12)N1CCCC1CN1CCCC1 (stereo not drawn) [Compound 440]	> 6.00	–
N#Cc1ccc(-c2ccc3nc(N[C@H](CO)Cc4ccccc4)cc(C(=O)N4CCC[C@H]4CN4CCCC4)c3c2)cc1 [Compound 316]	5.00 to 6.00	–
